Data from patent US7803783B2, “Use of WNT inhibitors to augment therapeutic index of chemotherapy” (The Board of Trustees of the Leland Stanford Junior …, priority 2002, dated 2010).

How the values were obtained:
[1] = tested on: wild type mouse bone marrow HSCs; experiment: In vitro HSC proliferation assay with purified Wnt3A; assay type: cell-based
Description: FIGS. 5A-5D. Wild Type HSCs proliferate to purified Wnt3A. Purified wild type mouse bone marrow HSCs were sorted by FACS and plated at 5 or 10 cells/well into 60 well Terasaki plates. Cells were incubated in X-vivo 15 (Bio Whittaker), 10% FBS, 5×10^−5M 2-Mercaptoethanol, and 1×10^−4M random methylated beta-cyclodextrin (CTD, Inc.) in the presence of either purified Wnt3A (at approx. 100 ng/ml) plus SLF (10 ng/ml) or SLF (10 ng/ml) alone, as a control. (SLF dose required ranged from 7.5 ng/ml-100 ng/ml depending on mouse strain used). Cell growth was monitored over a period of 7-9 days in culture, and is shown as total cell response (A) and the average frequency of responding wells (B) representative of over 9 independent experiments. To determine phenotypic characteristics, cells were plated in bulk (3500 cells) in 96 well plates and incubated in the presence of purified or unpurified Wnt3A.
Purified Wnt protein can regulate HSC self-renewal in the same manner as β-catenin in BCL-2 transgenic HSCs. To ensure that this response was not dependent on BCL-2 over-expression, we specifically tested whether wild type HSCs respond in a similar manner to purified Wnt3A as well. Over a period of days, HSCs plated at 1-20 cells per well, responded extremely robustly to Wnt3A in contrast to control conditions (e.g. 184 cells versus 0 when plated at 5 cells/well) (FIG. 5). The average frequency of cells that responded to Wnt3A over 3 independent experiments was 17-fold more than the proliferation to control conditions (limiting dose of SLF) when plated at 10 cells/well. […] Furthermore, the phenotypic characteristics of HSCs treated with purified or unpurified Wnt3A were dramatically different. […] Furthermore, a significant fraction of the lineage negative population expressed c-Kit and Sca-1 consistent with a HSC phenotype (D).
In vitro HSC proliferation assays. Freshly purified or virally transduced HSCs were plated at 1 to 20 cells per well in Terasaki plates. Cells were sorted into wells containing serum-free medium (X-vivo15, BioWhittaker) supplemented with 5×10^−5 M 2-mercaptoethanol and the indicated growth factors. Proliferation was monitored by counting the number of cells in each well at defined intervals. For longer-term cultures, transduced HSCs were plated in 96-well plates in the absence or presence of SLF (1 ng ml^−1), and the number of cells generated was monitored by cell counting at defined intervals. For inhibition of growth by CRD or axin, cells were cultured in the presence of mitogenic factors (SLF (30 ng ml^−1), Flt-3L (30 ng ml^−1), interleukin-6 (10 ng ml^−1)).

HSCs = experiment: Transplantation of Wnt3A-treated HSCs into lethally irradiated recipient mice; assay type: in vivo, mouse
Description: To test whether the cells treated with purified Wnt3A underwent self-renewal functionally, purified HSCs were plated as 1 cell or as 10 cells, treated with Wnt3A and each well containing proliferating cells transplanted individually into lethally irradiated recipient mice along with 300,000 Sca-1^− Bone Marrow cells (A). […] Since the empirically observed frequency of reconstitution of resting HSCs is ˜10% and of cycling HSCs ˜2%, the observed frequency of reconstitution of 100% for 1 plated cells is consistent with Wnt3A inducing a 10- to 50-fold increase in HSC activity, a range similar to that seen with BCL-2 transgenic HSCs.
In vivo analysis of HSC function.

[2] = tested on: LEF-1/TCF reporter (TOP-dGFP); experiment: Lentiviral LEF-1/TCF reporter assay in HSCs in vitro; assay type: cell-based, mouse; conditions: HSCs stimulated with Wnt3a about 100 ng/ml
human bone marrow HSCs = experiment: Proliferation of human bone marrow HSCs with soluble Wnt3a; assay type: cell-based; conditions: absence of any other growth factor

## Wnt3a
[1]; 10 cells/well, 3 independent experiments, control limiting dose of SLF
  average frequency of cells that responded relative to control conditions: 17 fold
[1]; after 7 days in culture
  lineage marker phenotype of treated HSCs: negative for lineage markers
[1]; plated at 5 cells/well, control 0
  total cell response: 184 cells
[1]; singly plated HSCs, presence of Wnt3a
  numbers of progeny generated by singly plated HSCs compared with control conditions: six-fold
HSCs; 1 plated cell treated with Wnt3A
  frequency of reconstitution: 100%
HSCs; wells plated with 10 cells or 5 cells
  reconstitution efficiency: 100%
[2]
  TOP-dGFP reporter activity (GFP expression): significant reporter activity
Human bone marrow HSCs
  proliferation of highly purified human bone marrow HSCs: induces proliferation
